Laboratory results reported in ChEMBL document CHEMBL2311398 (J Med Chem, 2013).

Assays:
[1] = molecular target: Growth hormone secretagogue receptor type 1 (Homo sapiens, UniProt Q92847); assay: Agonist activity at GHSR (unknown origin)
[2] = molecular target: T1, Motilin receptor (Homo sapiens, UniProt O43193); assay: Agonist activity at MLNR (unknown origin)
[3] = molecular target: T1, Motilin receptor; assay: Antagonist activity at MLNR (unknown origin)

T1 sequence (O43193 whole entry): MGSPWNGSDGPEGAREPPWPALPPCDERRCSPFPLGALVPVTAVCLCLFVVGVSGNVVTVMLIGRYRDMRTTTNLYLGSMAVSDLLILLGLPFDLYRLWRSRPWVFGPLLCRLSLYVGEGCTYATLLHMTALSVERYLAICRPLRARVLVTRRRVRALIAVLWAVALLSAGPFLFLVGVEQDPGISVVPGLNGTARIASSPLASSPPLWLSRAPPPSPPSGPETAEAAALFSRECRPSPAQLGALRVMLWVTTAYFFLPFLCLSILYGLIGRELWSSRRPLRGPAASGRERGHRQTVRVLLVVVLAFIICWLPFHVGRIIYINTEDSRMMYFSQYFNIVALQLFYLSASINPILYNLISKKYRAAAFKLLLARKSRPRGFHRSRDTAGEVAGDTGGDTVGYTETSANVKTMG
Sequence of Growth hormone secretagogue receptor type 1 (Q92847 whole entry): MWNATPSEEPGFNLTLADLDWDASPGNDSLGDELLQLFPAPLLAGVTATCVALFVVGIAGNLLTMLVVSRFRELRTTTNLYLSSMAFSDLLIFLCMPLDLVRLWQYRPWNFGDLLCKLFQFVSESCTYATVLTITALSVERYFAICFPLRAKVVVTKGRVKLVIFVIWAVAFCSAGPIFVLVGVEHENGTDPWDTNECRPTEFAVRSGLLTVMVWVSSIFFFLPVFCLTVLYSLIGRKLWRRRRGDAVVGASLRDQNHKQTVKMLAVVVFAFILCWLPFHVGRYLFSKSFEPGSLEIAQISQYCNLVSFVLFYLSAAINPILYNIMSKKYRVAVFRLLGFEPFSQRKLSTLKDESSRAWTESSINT

SMILES | IC50 [3] | also measured
COc1cccc(CCN(Cc2ccccc2-c2ccc(CN3C[C@@H](C)N[C@@H](C)C3)cc2)C(=O)NC2CCCCC2)c1 |  | EC50 [1]: 126 nM
CCNC(=O)[C@H](Cc1ccc(O)c(C(C)(C)C)c1)C(N)C(=O)[C@H](C(C)C)N(C)C(=O)[C@H](Cc1ccc(F)cc1)NC (some centres undefined) |  | Ki [2]: 2.63 nM
C[C@@H]1CN(Cc2ccc(-c3cccnc3C(=O)N3CCC(Nc4ccc(F)cc4)CC3)cc2)C[C@H](C)N1 | 3.98 nM | 
CC[C@H]1OC(=O)[C@H](C)[C@@H](O[C@H]2C[C@@](C)(OC)[C@@H](O)[C@H](C)O2)[C@H](C)[C@@H](O[C@@H]2O[C@H](C)C[C@H](N(C)C(C)C)[C@H]2O)[C@]2(C)CC(C)=C(O2)[C@H](C)C(=O)[C@]1(C)OC | 3.98 nM | 
